Measurements: patent US9907760B2 (LIBRAGEN, priority 2010, dated 2018)
Marks after values point to notes of the source that are not given here.

Assays:
Type in all cases: cell-based
[1] = tested on: acid GAGs in the papillary dermis; assay: Acid glycosaminoglycan (GAG) content of human skin explants (alcian blue staining, image analysis)
Procedure: (§1) In particular, the following parameters were evaluated: • general skin morphology after staining with Masson trichrome, • acid glycosaminoglycan (GAG) content after alcian blue staining, • expression level of the hyaluronic acid CD44 receptor after immunolabeling of this receptor.
(§2) Thirty-three explants (approximately 10 mm in diameter) were taken from a person (P712AB36) undergoing abdominoplasty. The explants were divided into 11 groups of three explants and placed in special skin explant survival medium.
(§3) RetinOx+Day cream was applied on the explants at 1 mg/cm^2 on days D0, D2, D3, D6 and D8.
(§4) On D0, D2, D3, D6 and D8, 30 μA of products P1, P2 and P3 were deposited on filter paper disks placed on the explants.
(§5) On D0, the three explants in group CO were sampled and cut in two. One-half was fixed in ordinary Bouin's solution and the other half stored at −80° C. On D6 and D10, three explants from each group were sampled and treated in the same manner.
After 48 hours of fixing in ordinary Bouin's solution, samples were dried and impregnated in paraffin using a Leica 1020 automated tissue processor, then embedded according to operating procedure MO-H-153 using a Leica EG 1160 embedding station. 5 μm sections were prepared according to operating procedure MO-H-173 using a Leica RM 2125 Minot microtome and mounted on Superfrost® histologic glass microscope slides.
Acid GAGs were visualized with alcian blue staining. They were present throughout the papillary dermis.
In this zone, the GAGs under study are stained blue and correspond to acid GAGs.
The intensity of staining was quantified by image analysis.
Acid GAGs were quantified by image analysis. The results are expressed as the percentage of the analyzed area in Table 10 below.

[2] = tested on: hyaluronic acid CD44 receptor; assay: Expression of the hyaluronic acid CD44 receptor in human skin explants (immunolabeling)
Procedure: as §1, §2, §3, §4, §5
Frozen sections were labeled for the CD44 receptor using mouse anti-CD44 monoclonal antibody (Invitrogen MHC D4400) at 1:100 dilution incubated for 1 hour at room temperature with a biotin/streptavidin amplifier system with FITC. Nuclei were counterstained with propidium iodide.

normal human fibroblasts [3] = assay: Proliferation of normal human fibroblasts treated with supernatant of treated keratinocytes (Cell Proliferation ELISA, BrdU); details: supernatant on fibroblasts 48 hrs
Procedure: This experiment evaluated the proliferation of normal human fibroblasts (dermal primocultures) after 48 hours of treatment with supernatant transferred from human keratinocytes.
The “Cell Proliferation ELISA, BrdU” test quantifies cell proliferation by measuring incorporation of bromodeoxyuridine (BrdU) during DNA synthesis followed by luminescence detection.
Cells were placed in the presence of the treatment for a specified time (incubator at 37° C., 5% CO2). The pyrimidine analogue 5-bromo-2′-deoxyuridine (BrdU) was then added and the cells were further incubated (37° C., 5% CO2) for a minimum of 2 hours, during which time BrdU is incorporated in place of thymidine into the DNA of proliferating cells.
The culture medium was removed, then the cells were fixed and the DNA denatured at the same time (antibody accessibility). An anti-BrdU-POD (peroxidase) antibody was added; this antibody binds to BrdU in newly synthesized DNA. The immune complex was then detected by addition of luminol substrate with measurement of luminescence (Genios, Tecan).
NHF were seeded at a density of 5,000 cells/well in E-199 culture medium (Gibco® Invitrogen) in a 96-well Optilux white plate (BD Falcon 353947). The plate was placed in a humid incubator (37° C., 5% CO2) for 24 hours.
The different products at the respective concentrations (diluted in KSFM culture medium, 600 μl) were contacted with NHK cells for 48 hours. Control cells were left untreated. Each treatment conditions was evaluated on three wells of NHK cells.
After 48 hours, a fraction of the NHK cell supernatant was removed. Each sample of supernatant (2 times 100 μl) from a well on the NHK plate (24 wells) was transferred to two wells in the NHF plate already containing 100 μl of E-199 medium per well. […]
Cell proliferation was quantified by the method described in the “Cell Proliferation ELISA, BrdU” kit (Roche Applied Science No. 11669915001). This is an immunological assay with luminescence detection (Genios, Tecan).
The means of the luminescence values (RLU/s) of six wells with the same treatment condition were determined. […] Proliferation of treated cells was expressed as a percentage of the control(untreated cells−100%)(OD treated/OD control×100).

[4] = tested on: normal human keratinocytes; assay: Hyaluronic acid production by normal human keratinocytes (HA-ELISA of supernatant); details: for % stimulation of hyaluronic acid synthesis: vs Control
Procedure: Normal human keratinocytes were cultured to confluence. Cells were treated with the test products for 48 hours. The supernatants, containing hyaluronic acid, were collected and assayed immediately. Hyaluronic acid was quantified with an ELISA microtiter plate.
(§6) Primocultures of normal human keratinocytes (NHK) were obtained from cells isolated from skin specimens from plastic surgery.
(§7) NHK were seeded at a density of 130,000 cells/well in specific KSFM culture medium (Gibco®, Invitrogen) in a 24-well plate. The plate was placed in a humid incubator (37° C., 5% CO2) for 24 hours.
The different products at the respective concentrations (diluted in KSFM medium, 600 μl) were contacted with the cells for 48 hours. Untreated cells were used as the control condition.
(§8) Each treatment condition was evaluated on three wells of NHK cells.
After 24 hours of treatment, an intermediate sample of […] of supernatant was removed from each well and the plate returned to the incubator (37° C., 5% CO2).
After 48 hours of treatment, the remaining supernatant (≈350 μA) was collected and centrifuged.
Cell supernatants were assayed according to the method described in the Hyaluronan Enzyme-Linked Immunosorbent Assay kit (HA-ELISA, Echelon Biosciences Inc.). This is an ELISA assay with spectrophotometric detection at 405 nm (Safire, Tecan).
(§9) The assay was performed in duplicate for each well.
(§10) Optical densities (OD) measured on each sample were plotted on a graph (specific standard curve in the kit). The hyaluronic acid concentration was expressed in ng/ml.
(§11) The amount of hyaluronic acid released by the cells was determined for each well and for each treatment condition, relative to the cell content expressed as μg of protein. Thus, the final result was expressed as ng/ml of hyaluronic acid per μg of protein.
A mean value was calculated for wells treated with the same concentration of test product. This mean was compared with the mean of the control wells (Student t test−comparison of means−significant difference at 95% if p<0.05* and at 99% if p<0.01*).
(§12) The percent stimulation induced by the test products was determined by comparing the mean values of the control and treatment conditions: % Stimulation=(Treated−Control)/Control
The vitamin A propionate was dissolved in DMSO.

normal human fibroblasts [5] = assay: Hyaluronic acid production by normal human fibroblasts treated with supernatant of treated keratinocytes (HA-ELISA); details: supernatant on fibroblasts 48 hrs; for % stimulation of hyaluronic acid synthesis: vs Control
Procedure: Normal human dermal fibroblasts were cultured to confluence. Cells were treated for 48 hours with supernatants of normal human keratinocytes previously grown in the presence of the test products. The fibroblast supernatants, containing hyaluronic acid, were collected and assayed immediately. Hyaluronic acid was quantified with an ELISA microtiter plate. Protein content was determined for each well of the microtiter plate.
as §6, §7
Primocultures of normal human fibroblasts (NHF) were obtained from cells isolated from skin specimens from plastic surgery.
NHF were seeded at a density of 90,000 cells/well in E-199 culture medium supplemented with 0.5% FCS (Gibco® Invitrogen) in a 24-well plate. The plate was placed in a humid incubator (37° C., 5% CO2) for 24 hours.
The two cell types—NHK and NHF—were plated 48 hours apart.
The different products at the respective concentrations (diluted in KSFM medium, 600 μl) were contacted with NHK cells for 48 hours. Untreated cells were used as the control condition. Two plates were used to separately test NAG, and NAG+vitamin A propionate, on the one hand, and NAG6P, and NAG6P+vitamin A propionate, on the other hand.
as §8
After 48 hours, a fraction of NHK cell supernatant (300 μl/well) was removed and transferred well for well into NHF cell supernatants (300 μl E-199/well−fresh medium without FCS).
This gave a final volume of 600 μl/well (50:50 ratio of KSFM/E-199 medium) which remained on the NHF cells for 48 hours.
After 48 hours of treatment, the NHF cell supernatant was collected and centrifuged.
Hyaluronic acid was assayed in the cell supernatants as described in example 1.
as §9, §10, §11
A mean value was calculated for wells treated with the same concentration of test product. This mean was compared with the mean of the control wells (Student t test−comparison of means−significant difference at 95% if p<0.05* and at 99% if p<0.01**).
as §12

## CC(=O)N[C@H]1C(O)O[C@H](COP(=O)(O)O)[C@@H](O)[C@@H]1O (stereo partly shown) [NAG6P, N-acetylglucosamine-6-phosphate]
[1]; D6, NAG6P 1% to 0.01%
  Acid GAGs, visual analysis: moderate along the DEJ and present throughout the papillary dermis, in a dose-dependent manner
[1]; D10, NAG6P 0.01%
  Percentage of area occupied by acid GAGs in the papillary dermis, % of analyzed area, Mean: 14.0%
[1]; D10, NAG6P 0.1%
  Percentage of area occupied by acid GAGs in the papillary dermis, % of analyzed area, Mean: 16.3%
[1]; D10, NAG6P 1%
  Percentage of area occupied by acid GAGs in the papillary dermis, % of analyzed area, Mean: 21.0%
[1]; D10, NAG6P 1% to 0.01%
  Acid GAGs, visual analysis: moderately present along the DEJ and throughout the papillary dermis, in a dose-dependent manner
[2]; D6, NAG6P 0.01%
  CD44 expression: overexpression was very moderate
[2]; D6, NAG6P 0.1%
  CD44 expression: mildly overexpressed
[2]; D6, NAG6P 1%
  CD44 expression: mildly overexpressed
[2]; D10, NAG6P 0.01%, epidermis and papillary dermis
  CD44 expression: overexpression was very clear
Normal human fibroblasts [3]; 5 mM on keratinocytes 48 hrs
  RLU: 4985 ± 184 RLU
Normal human fibroblasts [3]; 10 mM on keratinocytes 48 hrs
  RLU: 4903 ± 377 RLU
[4]; 5 mM, 48 hrs
  Hyaluronic acid: 1817.9 ± 145.1 ng/mL
  Hyaluronic acid (ng/ml/μg prot.): 122.1 ± 25.6 ng/ml/μg prot.
  % stimulation of hyaluronic acid synthesis: 73%*
[4]; 10 mM, 24 hrs
  Hyaluronic acid: 1067.3 ± 111.9 ng/mL
  % stimulation of hyaluronic acid synthesis: 35%*
[4]; 10 mM, 24 hrs, listed as N-acetylglucosamine-6-phosphate
  % stimulation of hyaluronic acid synthesis: 35%
[4]; 10 mM, 48 hrs
  Hyaluronic acid: 2503.2 ± 552.8 ng/mL
  Hyaluronic acid (ng/ml/μg prot.): 165.7 ± 32.4 ng/ml/μg prot.
  % stimulation of hyaluronic acid synthesis: 135%**
[4]; 10 mM, 48 hrs, listed as N-acetylglucosamine-6-phosphate
  % stimulation of hyaluronic acid synthesis: 135%
[4]; 20 mM, 48 hrs
  Hyaluronic acid: 3076 ± 260.8 ng/mL
  Hyaluronic acid (ng/ml/μg prot.): 269.6 ± 55.3 ng/ml/μg prot.
  % stimulation of hyaluronic acid synthesis: 282%**
[4]; 20 mM, 48 hrs, listed as N-acetylglucosamine-6-phosphate
  % stimulation of hyaluronic acid synthesis: 282%
Normal human fibroblasts [5]; 5 mM on keratinocytes 48 hrs
  Hyaluronic acid: 3524.1 ± 198.6 ng/mL
  Hyaluronic acid (ng/ml/μg prot.): 401.7 ± 38.3 ng/ml/μg prot.
  % stimulation of hyaluronic acid synthesis: 7%
Normal human fibroblasts [5]; 10 mM on keratinocytes 48 hrs
  Hyaluronic acid: 3507.6 ± 213.3 ng/mL
  Hyaluronic acid (ng/ml/μg prot.): 382.9 ± 20.5 ng/ml/μg prot.
  % stimulation of hyaluronic acid synthesis: 2%
